Measured values: US10793547B2, “Modulator of the cystic fibrosis transmembrane conductance regulator, pharmaceutical compositions, methods of treatment, and process for making the modulator” (Vertex Pharmaceuticals Incorporated, priority 2016, dated 2020)

Molecular target: T1, F508del-CFTR (Homo sapiens, UniProt P13569, DEL508-508)
T1 construct: expressed in transfected cells
Experiment: Membrane potential optical (FLIPR) assay for F508del-CFTR modulators in NIH 3T3 cells
Format: cell-based
Conditions: NIH 3T3 cells expressing F508del; assay A1; read-out: CFTRdF508 Cor 3T3 FLIPR 384 CFTRdF508 MP 3T3 770 EC50
From the text: Membrane Potential Optical Methods for Assaying Properties of F508del-CFTR Modulators
The assay utilizes fluorescent voltage sensing dyes to measure changes in membrane potential using a fluorescent plate reader (e.g., FLIPR III, Molecular Devices, Inc.) as a readout for increase in functional F508del in NIH 3T3 cells. The driving force for the response is the creation of a chloride ion gradient in conjunction with channel activation and concurrent with compound treatment by a single liquid addition step after the cells have previously been loaded with a voltage sensing dye.
A1. Identification of F508del-CFTR Modulators
To identify modulators of F508del, a fluorescence based HTS assay format was developed. This HTS assay utilizes fluorescent voltage sensing dyes to measure changes in membrane potential on the FLIPR III as a measurement for increase in gating (conductance) of F508del NIH 3T3 cells. The driving force for the response is the creation of a chloride ion gradient in conjunction with channel activation and concurrent with compound treatment by a single liquid addition step after the cells have previously been loaded with a voltage sensing dye.
Bath Solution #1: (in mM) NaCl 160, KCl 4.5, CaCl2 2, MgCl2 1, HEPES 10, pH 7.4 with NaOH, Glucose 10.
Chloride-free bath solution: Chloride salts in Bath Solution #1 (above) are substituted with gluconate salts.
NIH3T3 mouse fibroblasts stably expressing F508del were used for optical measurements of membrane potential. The cells were maintained at 37° C. in 5% CO2 and 90% humidity in Dulbecco's modified Eagle's medium supplemented with 2 mM glutamine, 10% fetal bovine serum, 1×NEAA, β-ME, 1× pen/strep, and 25 mM HEPES in 175 cm^2 culture flasks. For all optical assays, the cells were seeded at 12,000 cells/well in 384-well matrigel-coated plates and cultured for 18-24 hrs at 37° C. for the potentiator assay. For the correction assay, the cells were cultured at 37° C. with and without compounds for 18-24 hours.

T1 sequence (P13569 with tags, fused parts or gaps DEL508-508): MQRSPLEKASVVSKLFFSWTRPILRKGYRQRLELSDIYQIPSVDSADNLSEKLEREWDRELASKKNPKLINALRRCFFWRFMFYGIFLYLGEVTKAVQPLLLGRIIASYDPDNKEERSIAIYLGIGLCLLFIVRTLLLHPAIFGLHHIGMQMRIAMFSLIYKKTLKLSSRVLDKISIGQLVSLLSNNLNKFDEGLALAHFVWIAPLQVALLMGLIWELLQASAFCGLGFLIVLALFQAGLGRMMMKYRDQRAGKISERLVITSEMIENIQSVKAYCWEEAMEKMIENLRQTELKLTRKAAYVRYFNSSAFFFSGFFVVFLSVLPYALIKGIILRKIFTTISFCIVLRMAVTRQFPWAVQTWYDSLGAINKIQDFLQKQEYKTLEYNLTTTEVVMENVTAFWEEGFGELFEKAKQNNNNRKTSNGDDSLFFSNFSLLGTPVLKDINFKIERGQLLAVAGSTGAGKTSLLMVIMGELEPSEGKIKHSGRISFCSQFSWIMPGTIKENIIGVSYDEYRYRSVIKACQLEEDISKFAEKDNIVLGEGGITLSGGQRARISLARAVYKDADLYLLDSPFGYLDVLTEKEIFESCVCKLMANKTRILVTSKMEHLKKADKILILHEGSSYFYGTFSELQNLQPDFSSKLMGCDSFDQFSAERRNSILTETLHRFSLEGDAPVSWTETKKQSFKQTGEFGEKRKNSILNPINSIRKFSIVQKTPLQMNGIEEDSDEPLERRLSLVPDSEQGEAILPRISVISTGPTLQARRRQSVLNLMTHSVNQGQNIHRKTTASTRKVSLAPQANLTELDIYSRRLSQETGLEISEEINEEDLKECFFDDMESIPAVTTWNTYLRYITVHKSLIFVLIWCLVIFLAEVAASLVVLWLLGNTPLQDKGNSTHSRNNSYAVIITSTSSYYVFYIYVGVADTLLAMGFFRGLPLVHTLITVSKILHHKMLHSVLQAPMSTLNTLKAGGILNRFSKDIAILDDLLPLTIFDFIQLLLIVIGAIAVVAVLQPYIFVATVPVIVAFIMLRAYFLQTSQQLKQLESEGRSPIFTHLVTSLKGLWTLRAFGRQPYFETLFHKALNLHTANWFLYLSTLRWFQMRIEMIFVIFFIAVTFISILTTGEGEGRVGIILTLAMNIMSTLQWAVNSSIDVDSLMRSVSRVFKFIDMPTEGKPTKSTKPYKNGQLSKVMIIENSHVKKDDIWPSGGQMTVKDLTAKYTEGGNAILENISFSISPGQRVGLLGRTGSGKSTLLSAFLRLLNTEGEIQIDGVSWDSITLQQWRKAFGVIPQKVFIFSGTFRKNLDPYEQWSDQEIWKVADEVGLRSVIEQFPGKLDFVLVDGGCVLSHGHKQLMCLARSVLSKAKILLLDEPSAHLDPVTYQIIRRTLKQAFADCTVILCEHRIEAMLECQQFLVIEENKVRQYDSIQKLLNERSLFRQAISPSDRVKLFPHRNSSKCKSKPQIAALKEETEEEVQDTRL

SMILES	EC50 [nM]
Cc1nn(C)cc1S(=O)(=O)NC(=O)c1ccc(-n2ccc(OCC3(C(F)(F)F)CC3)n2)nc1N1C[C@@H](C(C)C)CC1(C)C (single isomer, unassigned) [Compound 46, N-(1,3-dimethylpyrazol-4-yl)sulfonyl-2-(4-isopropyl-2,2-dimethyl-pyrrolidin-1-yl)-6-[3-[[1-(trifluoromethyl)cyclopropyl]methoxy]pyrazol-1-yl]pyridine-3-carboxamide]	390
C[C@@H]1CN(c2nc(-n3ccc(OC4CC4)n3)ccc2C(=O)NS(=O)(=O)c2cnn(C)c2)C(C)(C)C1 [Compound 22, 6-[3-(Cyclopropoxy)pyrazol-1-yl]-N-(1-methylpyrazol-4-yl)sulfonyl-2-[(4S)-2,2,4-trimethylpyrrolidin-1-yl]pyridine-3-carboxamide]	2100
Cc1nn(C)cc1S(=O)(=O)NC(=O)c1ccc(-n2ccc(OCC3(C(F)(F)F)CC3)n2)nc1N1CC(C)CC12CC2 (stereo not drawn) [Compound 44, N-(1,3-dimethylpyrazol-4-yl)sulfonyl-2-(6-methyl-4-azaspiro[2.4]heptan-4-yl)-6-[3-[[1-(trifluoromethyl)cyclopropyl]methoxy]pyrazol-1-yl]pyridine-3-carboxamide]	390

The next molecules have a lower EC50 than those just listed; values first:

EC50 [nM]	SMILES
190	CCC1CN(c2nc(-n3ccc(OCC4(C(F)(F)F)CC4)n3)ccc2C(=O)NS(=O)(=O)c2cn(C)nc2C)C(C)(C)C1 (stereo not drawn) [Compound 49, N-(1,3-dimethylpyrazol-4-yl)sulfonyl-2-(4-ethyl-2,2-dimethyl-pyrrolidin-1-yl)-6-[3-[[1-(trifluoromethyl)cyclopropyl]methoxy]pyrazol-1-yl]pyridine-3-carboxamide]
110	[2H]C([2H])([2H])[C@@H]1CN(c2nc(-n3ccc(OCC(C)(C)C(F)(F)F)n3)ccc2C(=O)NS(=O)(=O)c2cn(C)nc2C)C(C)(C)C1([2H])[2H] [Compound 29, (S)—N-((1,3-dimethyl-1H-pyrazol-4-yl)sulfonyl)-2-(2,2-dimethyl-4-(methyl-d3)pyrrolidin-1-yl-3,3-d2)-6-(3-(3,3,3-trifluoro-2,2-dimethylpropoxy)-1H-pyrazol-1-yl)nicotinamide]
60	Cc1nn(C)cc1S(=O)(=O)NC(=O)c1ccc(-n2ccc(OCC3(C(F)(F)F)CC3)n2)nc1N1C[C@@H](C(C)C)CC1(C)C (single isomer, unassigned) [Compound 47, N-(1,3-dimethylpyrazol-4-yl)sulfonyl-2-(4-isopropyl-2,2-dimethyl-pyrrolidin-1-yl)-6-[3-[[1-(trifluoromethyl)cyclopropyl]methoxy]pyrazol-1-yl]pyridine-3-carboxamide]
